Results: article PMC5355060, “Preclinical pharmacodynamic evaluation of drug candidate SKLB-178 in the treatment of non-small cell lung cancer” (Oncotarget, 2017)

Key:
Format in all cases: biochemical
[1] = target: T1, PDGFRα (Homo sapiens, UniProt P16234); assay: […] radiolabeled kinase assay, single dose […]
T1 construct: gene PDGFRA

[2] = target: KDR (VEGFR2) (Homo sapiens, UniProt P35968); assay: […] radiolabeled kinase assay (Millipore KinaseProfiler)
[3] = target: EGFR L858R/T790M (Homo sapiens, UniProt P00533, T790M/L858R); assay: as above
[4] = target: EGFR (Homo sapiens, UniProt P00533); assay: as above
[5] = target: MET (Homo sapiens, UniProt P08581); assay: […] radiolabeled kinase assay, single dose […]
[6] = target: Src (Homo sapiens, UniProt P12931); assay: […] radiolabeled kinase assay (Millipore KinaseProfiler)
[7] = target: EGFR L858R (Homo sapiens, UniProt P00533, L858R); assay: as above
[8] = target: ErbB4 (Homo sapiens, UniProt Q15303); assay: […] radiolabeled kinase assay, single dose […]

KDR (VEGFR2), sequence (P35968 20-1356): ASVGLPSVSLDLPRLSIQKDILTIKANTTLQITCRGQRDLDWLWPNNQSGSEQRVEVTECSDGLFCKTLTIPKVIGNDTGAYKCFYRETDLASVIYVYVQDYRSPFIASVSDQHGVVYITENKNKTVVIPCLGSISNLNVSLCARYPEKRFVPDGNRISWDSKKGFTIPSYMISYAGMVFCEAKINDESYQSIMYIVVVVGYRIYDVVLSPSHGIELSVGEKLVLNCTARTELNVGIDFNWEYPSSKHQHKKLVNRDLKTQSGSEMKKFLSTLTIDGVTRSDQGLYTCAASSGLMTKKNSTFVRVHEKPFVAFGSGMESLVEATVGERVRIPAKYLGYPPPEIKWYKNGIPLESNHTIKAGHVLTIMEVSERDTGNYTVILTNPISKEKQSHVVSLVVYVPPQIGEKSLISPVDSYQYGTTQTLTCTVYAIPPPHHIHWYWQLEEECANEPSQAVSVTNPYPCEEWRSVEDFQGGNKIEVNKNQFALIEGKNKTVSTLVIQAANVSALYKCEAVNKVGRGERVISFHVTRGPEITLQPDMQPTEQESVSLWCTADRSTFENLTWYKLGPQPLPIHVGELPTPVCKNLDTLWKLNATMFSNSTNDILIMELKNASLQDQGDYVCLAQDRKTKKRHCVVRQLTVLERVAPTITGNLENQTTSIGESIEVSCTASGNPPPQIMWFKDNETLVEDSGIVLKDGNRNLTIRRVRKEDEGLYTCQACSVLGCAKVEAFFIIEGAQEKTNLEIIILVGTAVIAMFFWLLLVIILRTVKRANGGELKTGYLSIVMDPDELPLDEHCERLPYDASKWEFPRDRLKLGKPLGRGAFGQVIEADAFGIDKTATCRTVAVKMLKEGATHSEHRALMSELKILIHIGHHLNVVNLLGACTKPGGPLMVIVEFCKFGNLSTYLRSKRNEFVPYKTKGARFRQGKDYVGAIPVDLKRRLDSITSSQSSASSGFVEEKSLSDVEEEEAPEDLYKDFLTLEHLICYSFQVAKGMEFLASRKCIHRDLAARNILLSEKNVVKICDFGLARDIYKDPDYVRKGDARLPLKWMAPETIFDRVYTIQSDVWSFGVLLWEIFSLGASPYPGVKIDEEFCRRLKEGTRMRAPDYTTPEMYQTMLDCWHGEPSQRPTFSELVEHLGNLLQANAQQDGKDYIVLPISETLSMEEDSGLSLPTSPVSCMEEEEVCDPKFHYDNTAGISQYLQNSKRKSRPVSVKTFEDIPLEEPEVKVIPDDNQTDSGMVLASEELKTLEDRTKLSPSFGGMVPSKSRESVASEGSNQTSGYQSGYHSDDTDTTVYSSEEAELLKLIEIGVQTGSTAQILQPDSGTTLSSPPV
MET, sequence (P08581 25-307): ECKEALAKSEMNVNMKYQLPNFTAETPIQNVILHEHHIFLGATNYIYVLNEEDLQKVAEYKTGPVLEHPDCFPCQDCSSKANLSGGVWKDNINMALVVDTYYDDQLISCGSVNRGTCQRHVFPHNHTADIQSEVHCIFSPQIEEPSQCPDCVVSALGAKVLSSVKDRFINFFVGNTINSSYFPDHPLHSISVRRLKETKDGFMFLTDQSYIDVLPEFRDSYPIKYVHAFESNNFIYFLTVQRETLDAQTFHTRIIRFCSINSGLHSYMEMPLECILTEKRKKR
MET, sequence (P08581 308-1390): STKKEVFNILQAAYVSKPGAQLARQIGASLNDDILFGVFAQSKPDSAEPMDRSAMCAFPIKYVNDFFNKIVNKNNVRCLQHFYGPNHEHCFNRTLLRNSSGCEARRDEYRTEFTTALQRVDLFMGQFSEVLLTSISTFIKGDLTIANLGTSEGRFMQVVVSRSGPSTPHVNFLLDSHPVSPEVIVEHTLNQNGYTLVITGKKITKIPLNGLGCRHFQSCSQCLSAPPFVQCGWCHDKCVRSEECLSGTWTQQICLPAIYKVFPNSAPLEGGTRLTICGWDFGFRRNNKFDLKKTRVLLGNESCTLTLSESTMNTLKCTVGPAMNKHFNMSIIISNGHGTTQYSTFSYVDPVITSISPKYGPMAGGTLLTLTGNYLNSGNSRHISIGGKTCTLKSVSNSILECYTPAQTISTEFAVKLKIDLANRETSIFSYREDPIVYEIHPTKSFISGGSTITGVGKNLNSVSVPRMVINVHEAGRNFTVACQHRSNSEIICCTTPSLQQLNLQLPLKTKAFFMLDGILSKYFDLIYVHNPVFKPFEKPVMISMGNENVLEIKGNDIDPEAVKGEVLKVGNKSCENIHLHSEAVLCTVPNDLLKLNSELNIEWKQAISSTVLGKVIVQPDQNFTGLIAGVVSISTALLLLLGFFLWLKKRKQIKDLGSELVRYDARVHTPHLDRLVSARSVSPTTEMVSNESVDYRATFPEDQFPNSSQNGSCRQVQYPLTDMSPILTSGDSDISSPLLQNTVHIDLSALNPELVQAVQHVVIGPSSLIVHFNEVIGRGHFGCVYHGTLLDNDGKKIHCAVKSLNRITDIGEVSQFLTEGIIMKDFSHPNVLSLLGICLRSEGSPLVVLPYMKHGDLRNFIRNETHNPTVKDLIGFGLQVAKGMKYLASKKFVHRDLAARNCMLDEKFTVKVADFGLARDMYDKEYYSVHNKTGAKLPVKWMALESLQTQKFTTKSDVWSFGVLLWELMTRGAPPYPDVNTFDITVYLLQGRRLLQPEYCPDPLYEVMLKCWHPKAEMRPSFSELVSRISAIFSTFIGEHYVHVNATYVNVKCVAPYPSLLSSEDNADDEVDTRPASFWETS
EGFR L858R/T790M, sequence (P00533 669-1210 T790M/L858R limits assumed): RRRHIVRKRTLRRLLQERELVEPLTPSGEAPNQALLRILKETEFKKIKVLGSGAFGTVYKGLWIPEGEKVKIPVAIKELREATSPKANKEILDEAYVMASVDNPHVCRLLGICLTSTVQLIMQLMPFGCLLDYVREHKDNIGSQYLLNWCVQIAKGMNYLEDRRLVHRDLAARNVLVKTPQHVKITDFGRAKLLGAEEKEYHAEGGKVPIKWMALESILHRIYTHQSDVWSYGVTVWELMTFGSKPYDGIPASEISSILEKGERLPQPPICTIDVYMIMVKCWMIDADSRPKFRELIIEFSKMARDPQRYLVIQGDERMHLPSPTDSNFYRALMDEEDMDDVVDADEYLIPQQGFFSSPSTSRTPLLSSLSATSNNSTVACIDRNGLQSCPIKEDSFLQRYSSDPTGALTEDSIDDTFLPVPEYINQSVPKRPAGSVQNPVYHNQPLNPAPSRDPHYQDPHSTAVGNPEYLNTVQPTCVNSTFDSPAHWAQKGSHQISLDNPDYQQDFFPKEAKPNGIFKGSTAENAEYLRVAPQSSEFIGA
Src, sequence (P12931 2-536): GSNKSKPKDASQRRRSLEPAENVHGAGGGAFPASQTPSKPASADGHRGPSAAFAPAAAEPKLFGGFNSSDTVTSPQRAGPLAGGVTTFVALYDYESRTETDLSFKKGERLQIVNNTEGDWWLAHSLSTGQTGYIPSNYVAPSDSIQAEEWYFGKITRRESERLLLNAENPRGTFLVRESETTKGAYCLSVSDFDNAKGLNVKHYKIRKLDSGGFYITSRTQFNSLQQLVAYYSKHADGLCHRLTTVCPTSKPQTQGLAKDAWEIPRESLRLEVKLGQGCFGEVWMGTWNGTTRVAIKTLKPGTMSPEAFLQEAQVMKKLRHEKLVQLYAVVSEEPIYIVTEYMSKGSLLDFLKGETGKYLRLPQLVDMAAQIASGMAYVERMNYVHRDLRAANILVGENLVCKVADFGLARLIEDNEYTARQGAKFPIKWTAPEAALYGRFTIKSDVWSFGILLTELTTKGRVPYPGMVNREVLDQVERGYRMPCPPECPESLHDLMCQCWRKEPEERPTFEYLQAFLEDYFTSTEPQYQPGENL
EGFR L858R, sequence (P00533 668-1210 L858R limits assumed): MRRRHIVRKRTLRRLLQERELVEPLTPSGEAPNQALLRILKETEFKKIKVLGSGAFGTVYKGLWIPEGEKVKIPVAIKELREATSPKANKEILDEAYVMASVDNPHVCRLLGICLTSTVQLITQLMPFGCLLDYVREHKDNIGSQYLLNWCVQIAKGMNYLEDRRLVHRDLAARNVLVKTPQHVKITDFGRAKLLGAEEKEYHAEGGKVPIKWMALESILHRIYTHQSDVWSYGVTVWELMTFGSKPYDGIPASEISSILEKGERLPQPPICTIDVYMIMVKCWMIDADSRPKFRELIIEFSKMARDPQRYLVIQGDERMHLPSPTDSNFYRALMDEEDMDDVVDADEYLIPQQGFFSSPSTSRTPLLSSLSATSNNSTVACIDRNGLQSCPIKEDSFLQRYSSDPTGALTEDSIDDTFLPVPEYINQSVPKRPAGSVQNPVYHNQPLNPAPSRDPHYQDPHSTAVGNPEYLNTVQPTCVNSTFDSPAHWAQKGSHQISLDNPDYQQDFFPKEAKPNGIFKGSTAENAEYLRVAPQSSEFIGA

With `CN1CCN(c2ccc(Nc3ncc4nc(Nc5ccc(Br)cc5)n(C5CCCC5)c4n3)cc2)CC1` [SKLB-178] the inhibition at 1 µM [1] was 58%, the “33P radiolabeled kinase assay (Millipore KinaseProfiler)” value (shortened to “33P radiolabeled kinase assay”) [2] was “completely inhibited at 10 μM or 1 μM” and the “33P radiolabeled kinase assay” value [3] was “completely inhibited at 10 μM or 1 μM”. For the same molecule, the “33P radiolabeled kinase assay” value [4] was “completely inhibited at 10 μM or 1 μM”, the inhibition at 10 µM [5] was 88% and the “33P radiolabeled kinase assay” value [6] was “completely inhibited at 10 μM or 1 μM”. For the same molecule, the “33P radiolabeled kinase assay” value [7] was “completely inhibited at 10 μM or 1 μM” and the inhibition at 1 µM [8] was 100%.
